Assay results taken from ChEMBL document CHEMBL1201862, “PubChem BioAssay data set” (2004).
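Five compound concentrations were applied to cells in 96-well plates for 48 hours; endpoints were derived by simple linear interpolation of the resulting dose-response curve. GI50 = concentration required for 50% inhibition of growth.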 Active and inactive are the calls of the source. No stated cut-off is given here; in the data, active = GI50 up to about 1.1 µM and inactive = higher.

Key:
Assay in all cases: NCI-60 cell line screen, 48 h
[1] = system: SNB-78
[2] = system: SF-539
[3] = system: SF-268
[4] = system: ACHN
[5] = system: SF-295
[6] = system: SK-MEL-28
[7] = system: SN12C
[8] = system: TK-10
[9] = system: DLD-1
[10] = system: M14
[11] = system: SK-MEL-5
[12] = system: IGROV-1
[13] = system: DMS-114
[14] = system: OVCAR-4
[15] = system: SW-620
[16] = system: LOX IMVI
[17] = system: MOLT-4
[18] = system: UACC-257
[19] = system: UO-31
[20] = system: A498
[21] = system: COLO 205
[22] = system: U-251
[23] = system: RPMI-8226
[24] = system: Malme-3M
[25] = system: SNB-75
[26] = system: NCI-H23
[27] = system: UACC-62
[28] = system: OVCAR-8
[29] = system: CAKI-1
[30] = system: OVCAR-3
[31] = system: NCI-H522
[32] = system: HOP-18
[33] = system: NCI-H460
[34] = system: EKVX
[35] = system: KM-20L2
[36] = system: SK-MEL-2
[37] = system: DMS-273
[38] = system: M19-MEL
[39] = system: KM12
[40] = system: XF498
[41] = system: HOP-92
[42] = system: RXF 393
[43] = system: HCT-15
[44] = system: HCT-116
[45] = system: NCI-H226
[46] = system: A549
[47] = system: LXFL 529
[48] = system: SR
[49] = system: SK-OV-3
[50] = system: HCC 2998
[51] = system: SNB-19
[52] = system: 786-0
[53] = system: HT-29
[54] = system: OVCAR-5
[55] = system: HOP-62
[56] = system: RXF 631
[57] = system: K562
[58] = system: CCRF-CEM
[59] = system: HL-60

Compound: S=c1sc2c(Cl)ncnc2n1-c1ccccc1
- GI50 [1]: 10.5 µM (inactive)
- GI50 [2]: 16.3 µM (inactive)
- GI50 [3]: 5.05 µM (inactive)
- GI50 [4]: 16.5 µM (inactive)
- GI50 [5]: 12.8 µM (inactive)
- GI50 [6]: 11.2 µM (inactive)
- GI50 [7]: 15.8 µM (inactive)
- GI50 [8]: 17.8 µM (inactive)
- GI50 [9]: 11.5 µM (inactive)
- GI50 [10]: 13.3 µM (inactive)
- GI50 [11]: 16.1 µM (inactive)
- GI50 [12]: 15 µM (inactive)
- GI50 [13]: 13.6 µM (inactive)
- GI50 [14]: 18.8 µM (inactive)
- GI50 [15]: 17.4 µM (inactive)
- GI50 [16]: 4.28 µM (inactive)
- GI50 [17]: 18.2 µM (inactive)
- GI50 [18]: 15.5 µM (inactive)
- GI50 [19]: 18.7 µM (inactive)
- GI50 [20]: 16.6 µM (inactive)
- GI50 [21]: 14 µM (inactive)
- GI50 [22]: 16 µM (inactive)
- GI50 [23]: 23.8 µM (inactive)
- GI50 [24]: 10.9 µM (inactive)
- GI50 [25]: 14 µM (inactive)
- GI50 [26]: 17.4 µM (inactive)
- GI50 [27]: 9.62 µM (inactive)
- GI50 [28]: 16.1 µM (inactive)
- GI50 [29]: 4.88 µM (inactive)
- GI50 [30]: 15.4 µM (inactive)
- GI50 [31]: 2.01 µM (inactive)
- GI50 [32]: 19 µM (inactive)
- GI50 [33]: 15.7 µM (inactive)
- GI50 [34]: 17.7 µM (inactive)
- GI50 [35]: 19.1 µM (inactive)
- GI50 [36]: 8.81 µM (inactive)
- GI50 [37]: 1.51 µM (inactive)
- GI50 [38]: 3.8 µM (inactive)
- GI50 [39]: 17.2 µM (inactive)
- GI50 [40]: 15.2 µM (inactive)
- GI50 [41]: 19.7 µM (inactive)
- GI50 [42]: 15.1 µM (inactive)
- GI50 [43]: 15.1 µM
- GI50 [44]: 5.66 µM (inactive)
- GI50 [45]: 13.4 µM (inactive)
- GI50 [46]: 28.8 µM (inactive)
- GI50 [47]: 12.4 µM (inactive)
- GI50 [48]: 3.27 µM (inactive)
- GI50 [49]: 20 µM (inactive)
- GI50 [50]: 17.1 µM (inactive)
- GI50 [51]: 18.2 µM (inactive)
- GI50 [52]: 15.1 µM (inactive)
- GI50 [53]: 11.4 µM (inactive)
- GI50 [54]: 22.9 µM (inactive)
- GI50 [55]: 15.6 µM (inactive)

Compound: CC(=O)OCC12CC(CC1OC(C)=O)c1ccccc12 (configuration not stated)
- GI50 [3]: > 100 µM (inactive)
- GI50 [4]: > 100 µM (inactive)
- GI50 [5]: > 100 µM (inactive)
- GI50 [6]: > 100 µM (inactive)
- GI50 [7]: > 100 µM (inactive)
- GI50 [8]: > 100 µM (inactive)
- GI50 [10]: > 100 µM (inactive)
- GI50 [11]: > 100 µM (inactive)
- GI50 [56]: > 100 µM (inactive)
- GI50 [12]: > 100 µM (inactive)
- GI50 [13]: > 100 µM (inactive)
- GI50 [14]: > 100 µM (inactive)
- GI50 [15]: > 100 µM (inactive)
- GI50 [16]: > 100 µM (inactive)
- GI50 [17]: > 100 µM (inactive)
- GI50 [18]: > 100 µM (inactive)
- GI50 [19]: > 100 µM (inactive)
- GI50 [20]: > 100 µM (inactive)
- GI50 [21]: > 100 µM (inactive)
- GI50 [22]: > 100 µM (inactive)
- GI50 [23]: > 100 µM (inactive)
- GI50 [24]: > 100 µM (inactive)
- GI50 [26]: > 100 µM (inactive)
- GI50 [27]: > 100 µM (inactive)
- GI50 [57]: > 100 µM (inactive)
- GI50 [28]: > 100 µM (inactive)
- GI50 [29]: > 100 µM (inactive)
- GI50 [30]: > 100 µM (inactive)
- GI50 [32]: > 100 µM (inactive)
- GI50 [33]: > 100 µM (inactive)
- GI50 [35]: > 100 µM (inactive)
- GI50 [37]: > 100 µM (inactive)
- GI50 [38]: > 100 µM (inactive)
- GI50 [41]: > 100 µM (inactive)
- GI50 [43]: > 100 µM
- GI50 [44]: > 100 µM (inactive)
- GI50 [58]: > 100 µM (inactive)
- GI50 [45]: > 100 µM (inactive)
- GI50 [46]: > 100 µM (inactive)
- GI50 [47]: > 100 µM (inactive)
- GI50 [48]: > 100 µM (inactive)
- GI50 [49]: > 100 µM (inactive)
- GI50 [50]: > 100 µM (inactive)
- GI50 [51]: > 100 µM (inactive)
- GI50 [52]: > 100 µM (inactive)
- GI50 [53]: > 100 µM (inactive)
- GI50 [59]: > 100 µM (inactive)
- GI50 [54]: > 100 µM (inactive)
- GI50 [55]: > 100 µM (inactive)

Compound: O=C(Nc1ccc(Cl)cc1)c1cccc([N+](=O)[O-])c1O
- GI50 [1]: 4.27 µM (inactive)
- GI50 [2]: 4.18 µM (inactive)
- GI50 [3]: 4.67 µM (inactive)
- GI50 [4]: 2.85 µM (inactive)
- GI50 [5]: 3.29 µM (inactive)
- GI50 [6]: 4.99 µM (inactive)
- GI50 [7]: 4.09 µM (inactive)
- GI50 [8]: 3.72 µM (inactive)
- GI50 [9]: 3.18 µM (inactive)
- GI50 [10]: 3.63 µM (inactive)
- GI50 [11]: 1.75 µM (inactive)
- GI50 [12]: 3.03 µM (inactive)
- GI50 [13]: 3.1 µM (inactive)
- GI50 [14]: 4.07 µM (inactive)
- GI50 [15]: 4.81 µM (inactive)
- GI50 [16]: 3.74 µM (inactive)
- GI50 [17]: 2.5 µM (inactive)
- GI50 [18]: 2.24 µM (inactive)
- GI50 [19]: 1.98 µM (inactive)
- GI50 [20]: 1.95 µM (inactive)
- GI50 [21]: 2.91 µM (inactive)
- GI50 [22]: 2.7 µM (inactive)
- GI50 [23]: 1.6 µM (inactive)
- GI50 [24]: 1.37 µM (inactive)
- GI50 [25]: 3.52 µM (inactive)
- GI50 [26]: 2.43 µM (inactive)
- GI50 [27]: 1.85 µM (inactive)
- GI50 [57]: 2.58 µM (inactive)
- GI50 [28]: 4.39 µM (inactive)
- GI50 [29]: 3.19 µM (inactive)
- GI50 [30]: 1.81 µM (inactive)
- GI50 [31]: 1.98 µM (inactive)
- GI50 [32]: 0.53 µM (active)
- GI50 [33]: 2.1 µM (inactive)
- GI50 [34]: 2.98 µM (inactive)
- GI50 [35]: 4.43 µM (inactive)
- GI50 [36]: 2.02 µM (inactive)
- GI50 [37]: 3.13 µM (inactive)
- GI50 [38]: 2.8 µM (inactive)
- GI50 [39]: 4.53 µM (inactive)
- GI50 [40]: 2.64 µM (inactive)
- GI50 [41]: 1.61 µM (inactive)
- GI50 [42]: 1.78 µM (inactive)
- GI50 [43]: 4.84 µM
- GI50 [44]: 3.94 µM (inactive)
- GI50 [58]: 2.06 µM (inactive)
- GI50 [45]: 2.33 µM (inactive)
- GI50 [46]: 3.65 µM (inactive)
- GI50 [47]: 3.1 µM (inactive)
- GI50 [48]: 4.76 µM (inactive)
- GI50 [49]: 2.96 µM (inactive)
- GI50 [50]: 1.99 µM (inactive)
- GI50 [51]: 2.92 µM (inactive)
- GI50 [52]: 3.88 µM (inactive)
- GI50 [53]: 4.25 µM (inactive)
- GI50 [59]: 2.07 µM (inactive)
- GI50 [54]: 12 µM (inactive)
- GI50 [55]: 1.98 µM (inactive)
